Results: patent US20240197712A1, “TGF-BETA INHIBITION FOR IMMUNODEFICIENCY VIRUS REACTIVATION FROM LATENCY, ENHANCEMENT OF IMMUNODEFICIENCY VIRUS-SPECIFIC RESPONSES AND IMMUNODEFICIENCY VIRUS CURE” (Northwestern University, priority 2022, published 2024)

Legend:
[1] = system: primary CD4+ T cells; assay: Primary CD4+ T cell model of HIV-1 latency, p24 ICS; assay type: cell-based, human; conditions: primary CD4+ T cells infected with HIV ADA; PMA 100 ng/ml; TGF-β1 10 ng/ml or galunisertib 1 μM
Procedure: Next, the impact of TGF-β1 on a primary model of HIV-1 latency was tested using freshly isolated CD4+ T cells. The experiment was based on the model by Berkhout and colleagues (50) with some modifications (FIG. 1F). Specifically, CD4+ T cells were isolated from HIV-1 uninfected, de-identified donor PBMC and activated them with PHA and IL-2 for 3 days before infection via spinoculation with HIV ADA. After extensive wash of the viral inoculum, cells were cultured 48 hrs in presence of T20 (enfuvirtide) to avoid viral spread beyond the cells with initial integrations. The overall initial infection achieved was very low despite the spinoculation step (˜0.1% of p24-gag+ cells, FIGS. 3A-3B).
Blood from de-identified donors was obtained from the New York Blood Bank and used as source of CD4 T cells for the primary model of HIV latency in vitro. Total CD4+ T cells were isolated with the CD4 T cells isolation kit (Miltenyi) and activated with 5 μg/ml of PHA and 50 U/ml of IL-2 for 3 days. After washing out the PHA, cells were infected with 200TCID50 of HIV-ADA (NIH HIV Reagent Program) in 12 or 24 wells/plates and spinoculated at 1200 g for 2 hrs at 25° C. After additional 3 hrs of incubation at 37° C., viral inoculum was washed and cells plated in presence of T20 (Enfurtivide acetate salt, 1 μM NIH AIDS reagent program). […]

[2] = system: SIVmac239M2; assay: Plasma viral load, four 2-week galunisertib cycles; assay type: in vivo, rhesus macaques
Procedure: Rhesus macaques (n=8 main study+4 separate non-concomitant study) were infected with 300 TCID50 of the barcoded SIVmac239M2 stock intravenously and ART (Tenofovir [PMPA], Emtricitabine [FTC] and Dolutegravir [DTG]) was initiated on week 6 pi. Galunisertib treatment was initiated on week 35 p.i. Powder (MedChemExpress—MCE, NJ, USA) was dissolved in water and given orally in a treat twice daily at 20 mg/kg. 4 cycles of 2 weeks daily treatment with 2 weeks wash out period were performed. Macaques 08M156 and A6X003 were given the rhesus recombinant antibody (rhesus/human chimeric) anti-PD1 antibody [NIVOR4LALA; comprising silenced rhesus IgG4k […] constant regions and variable regions from anti-human PD-1, nivolumab; non-human primates reagents resource, NHPRR. Blood viral load was monitored biweekly before and during ART and every 3-4 days during Galunisertib treatment. Colorectal biopsies and LN FNA were collected before and after galunisertib treatment. ART was terminated 3 weeks after the last galunisertib dose and euthanasia and necropsy to harvest tissues were performed at week 58 post infection, tissues samples were flash frozen, fixed in OCT or Z-fix.
Blood was collected in EDTA tubes and plasma was separated by density gradient centrifugation and used for the determination of plasma VL by SIVgag qRT-PCR at NIRC or at Leidos (Quantitative Molecular Diagnostics Core, AIDS and Cancer Virus Program Frederick National Laboratory). Tissue VL from snap frozen PBMC pellets, colorectal biopsies and LN FNA were performed as described in (77). SIV-TILDA was performed on freshly stored PBMC before cycle 1 and at the end of cycle 4 of galunisertib by Accelevir, Baltimore, MD.

[3] = system: SIVmac251 or SIVmac239; assay: Tissue cell-associated vRNA/vDNA, colorectal biopsies and LN FNA; assay type: in vivo, rhesus macaques
Procedure: (§1) Blood was collected in EDTA tubes and plasma was separated by density gradient centrifugation and used for the determination of plasma VL by SIVgag qRT-PCR at NIRC or at Leidos (Quantitative Molecular Diagnostics Core, AIDS and Cancer Virus Program Frederick National Laboratory). Tissue VL from snap frozen colorectal biopsies and LN FNA were performed at Leidos (A14X004, A14X005 and A14X013) as described in (78) or, for the remaining macaques and from PBMC of all macaques they were performed as described in (77).

[4] = system: SIVmac251 or SIVmac239; assay: Plasma viral load, SIV-infected ART-treated macaques, 1-2 weeks galunisertib; assay type: in vivo, rhesus macaques
Procedure: Rhesus macaques (n=7) were infected with SIVmac251 or SIVmac239 rectally or intravenously (FIG. 9) and ART (Tenofovir [PMPA], Emtricitabine [FTC] and Dolutegravir [DTG]) was initiated between week 12 and 17 post infection. Galunisertib treatment was initiated after 26 or 27 weeks on ART for 7 or 14 days. Galunisertib powder (MedChemExpress—MCE, NJ, USA) was dissolved in water and given orally in a treat twice daily at 5 mg/kg or 10 mg/kg (FIG. 9). Blood viral load was monitored biweekly before and during cART and every 3-4 days during 438 Galunisertib treatment. Colorectal biopsies and LN FNA were collected before and after galunisertib treatment.
as §1

[5] = system: SIVmac239 gag and env peptides; assay: Anti-SIV T cell responses, intracellular cytokine staining; assay type: in vivo, rhesus macaques; conditions: before vs after treatment
Procedure: Frozen PBMC collected right before the first galunisertib administration and right after were thawed in AIM V medium (Thermo Fisher) plated on a plate pre-coated with 2.5 μg/ml goat anti mouse (GAM) IgGs and cross linked with 10 μg/ml anti-CD28 and anti-CD49d antibodies (Sigma Aldrich). Cells were stimulated either with SIVMAC239 GAG peptide pool (2 μg/ml) or with SIVMAC239 ENV peptide pool (2 μg/ml AIDS reagents program, Division of AIDS, NIAID, NIH) or the same volume of DMSO as baseline control. Pooled cells stimulated with 1 μg/ml PMA/Ionomycin were used a positive activation control. One hour later 10 μg/ml BFA and monensin (GolgiStop, BD Biosciences) were added to each well. After 5 hours, cells were transferred to a FACS plate and stained with the LIVE/DEAD Aqua viability dye (Thermo Fisher Scientific) and antibodies against cell surface and cytokines (Table 2).

Cc1cccc(-c2nn3c(c2-c2ccnc4ccc(C(N)=O)cc24)CCC3)n1 [galunisertib, Galunisertib]
PMA-induced frequency of p24-gag+ cells [1]: did not alter | macaques with increased pVL after start of treatment ([2]; 20 mg/Kg twice daily orally, 4 cycles): 7 out of 8 | increases in pVL in fully suppressed macaques ([2]; 08M171, A8R095 and A8L057): > 102 copies/ml | viral rebound after ART interruption ([2]; ART discontinued 3 weeks after last dose, 6 weeks follow-up): One macaque did not rebound | macaques with viral blips above 100 copies/ml in blood ([2]; Example 5, 7 macaques, 20 mg/kg twice per day, four 2-weeks cycles): 5 out of the 7 | pVL peaks during treatment ([2]; macaques with several peaks): up to 103 copies/ml | pVL blips in A8T010 and A8R095 after treatment initiation ([2]; undetectable for over 5 weeks before): up to 102 copies/ml | ratio CA-RNA/DNA ([3]; at least 2 macaques (A14X027 and A14X064)): increased substantially | increase in cell associated vRNA (CA-RNA) ([3]; colorectal biopsies and LN FNA, before vs after treatment): 1 to 3 log | macaques with increase in pVL over 100 copies/ml ([4]; 5 or 10 mg/kg orally twice per day, 1 or 2 weeks): 2 of the 7 | increase in pVL in macaque not continuously suppressed before treatment ([4]; single macaque (A14X)): > 2 Log | frequency of cells producing multiple cytokines [5]: no increase | frequency of IFN-γ producing CD4 and CD8 T cells ([5]; gag and env peptides stimulation): significant increase
